Measured values as given in patent US4450269A, “Mono-5-substituted-3-chloro-4H-1,2,6-thiadiazin-4-one antifungal agents” (FMC Corporation, priority 1980, dated 1984).
Counter-ions that a name gives are not always drawn.

Experiments:
[1] = system: Venturia inaequalis; assay: Spore germination test; format: cell-based; conditions: VI, 48 hours
Experimental: VI = Venturia inaequalis
The test chemical was dissolved or suspended in acetone in an amount such that 0.8 ml of the resulting suspension or solution, mixed with 40 ml water agar produced a water agar solution containing 40, 10, 2.5 and 1 ppm of test chemical. The resulting agar solution, at 50° C., was then divided equally between two sterile petri dishes, each having four separated quadrants, and allowed to solidify. […] quadrants of each dish were flooded with 0.1 ml of a spore suspension in sterile water. Spores of two pathogens, Erysiphe polygoni and Uromyes phaseoli, from infected plant leaves, were brushed on the remaining two quadrants. The tests were then incubated 48 hours, at 24° C.
Readings were then taken and the percentage of germinated spores calculated. From this percentage, a spore germination rating was assigned as follows: […]

[2] = system: Pyricularia oryzae; assay: microbe, parasite or virus in culture; format: cell-based; conditions: for inhibition at 5 ppm / inhibition at 10 ppm / inhibition at 20 ppm / inhibition at 40 ppm: Pyricularia oryzae, 72 h; for inhibition at 5 ppm: read-out: Percent Fungus Growth Inhibition, PO, 5 ppm, 72 hours; for inhibition at 10 ppm: read-out: Percent Fungus Growth Inhibition, PO, 10 ppm, 72 hours; for inhibition at 20 ppm: read-out: Percent Fungus Growth Inhibition, PO, 20 ppm, 72 hours; for inhibition at 40 ppm: read-out: Percent Fungus Growth Inhibition, PO, 40 ppm, 72 hours; for Percent Fungus Growth Inhibition: PO, 72 hours

Row | Compound | Spore Germination Rating ([1]; 1.0 ppm) | Spore Germination Rating ([1]; 2.5 ppm) | Spore Germination Rating ([1]; 10 ppm) | Spore Germination Rating ([1]; 40 ppm) | inhibition at 5 ppm [2] | inhibition at 10 ppm [2] | inhibition at 20 ppm [2] | inhibition at 40 ppm [2] | other results
1 | O=c1c(Cl)nsnc1Oc1ccc([N+](=O)[O-])cc1 [Compound 9, 3-chloro-5-(4-nitrophenoxy)-4H--1,2,6-thiadiazin-4-one] | 0 (0-10) | 0 (0-10) | 0 (0-10) | 0 (0-10) | 22% | 48% | 70% | 93% | –
2 | Cc1cc(Cl)ccc1Oc1nsnc(Cl)c1=O [Compound 55, 3-chloro-5-(4-chloro-2-methylphenoxy)-4H--1,2,6-thiadiazin-4-one] | 1 (10-40) | 0 (0-10) | 0 (0-10) | 0 (0-10) | 41% | 59% | 51% | 53% | –
3 | O=c1c(Cl)nsnc1Oc1cccc2ccccc12 [Compound 32, 3-chloro-5(1-naphthoxy)-4H-1,2,6-thiadiazin-4-one] | 3 (60-80) | 0 (0-10) | 0 (0-10) | 0 (0-10) | 67% | 78% | 100% | 89% | –
4 | Cc1cc(C)cc(Oc2nsnc(Cl)c2=O)c1 [Compound 25, 3-chloro-5-(3,5-dimethylphenoxy)-4H--1,2,6-thiadiazin-4-one] | 4 (80-100) | 0 (0-10) | 2 (40-60) | 0 (0-10) | 33% | 58% | 54% | 63% | –
5 | O=c1c(Cl)nsnc1Oc1cccc(Cl)c1 [Compound 13, 3-chloro-5-(3-chlorophenoxy)-4H--1,2,6-thiadiazin-4-one] | 1 (10-40) | 0 (0-10) | 0 (0-10) | 0 (0-10) | 44% | 42% | 74% | 100% | –
6 | O=C(O)Cc1ccccc1Oc1nsnc(Cl)c1=O [Compound 45, 3-(2-carboxymethylphenoxy)-5-chloro-4H--1,2,6-thiadiazin-4-one] | 4 (80-100) | 4 (80-100) | 4 (80-100) | 0 (0-10) | 0% | 0% | 0% | 11% | –
7 | CSc1ccc(Oc2nsnc(Cl)c2=O)cc1 [Compound 39, 3-chloro-5-[(4-methylthio)phenoxy]-4H-1,2,6,-thiadiazin-4-one] | – | – | – | – | 42% | 61% | 61% | 61% | –
8 | O=c1c(Cl)nsnc1Oc1ccc(F)cc1 [Compound 11, 3-chloro-5-(4-fluorophenoxy)-4H--1,2,6-thiadiazin-4-one] | 4 (80-100) | 1 (10-40) | 0 (0-10) | 0 (0-10) | 15% | 38% | 54% | 62% | –
9 | Cc1cc(Oc2nsnc(Cl)c2=O)ccc1Cl [Compound 54, 3-chloro-5-(4-chloro-3-methylphenoxy)-4H--1,2,6-thiadiazin-4-one] | 1 (10-40) | 0 (0-10) | 0 (0-10) | 0 (0-10) | 50% | 53% | 56% | 65% | –
10 | 3-chloro-5-(bromophenoxy)-4H-1,2,6-thiadiazin-4-one [Compound 33] | 0 (0-10) | 0 (0-10) | 0 (0-10) | 0 (0-10) | – | – | – | – | Percent Fungus Growth Inhibition ([2]; 5 ppm): 53%; Percent Fungus Growth Inhibition ([2]; 10 ppm): 68%; Percent Fungus Growth Inhibition ([2]; 20 ppm): 100%; Percent Fungus Growth Inhibition ([2]; 40 ppm): 100%
11 | COc1cc(Oc2nsnc(Cl)c2=O)cc(OC)c1C(C)=O [Compound 61, 3-[(4-acetyl-3,5-dimethoxy)-phenoxy]-5-chloro-4H--1,2,6-thiadiazin-4-one] | – | – | – | – | 28% | 42% | 50% | 44% | –
12 | Cc1ccccc1Oc1nsnc(Cl)c1=O [Compound 22, 3-chloro-5-(2-methylphenoxy)-4H--1,2,6-thiadiazin-4-one] | 0 (0-10) | 0 (0-10) | 0 (0-10) | 0 (0-10) | 21% | 33% | 54% | 63% | –
13 | O=c1c(Cl)nsnc1Oc1cc(Cl)cc(Cl)c1 [Compound 20, 3-chloro-5-(3,5-dichlorophenoxy)-4H--1,2,6-thiadiazin-4-one] | 0 (0-10) | 0 (0-10) | 0 (0-10) | 0 (0-10) | 48% | 74% | 68% | 74% | –
14 | O=c1c(Cl)nsnc1Oc1ccccc1Cl [Compound 14, 3-chloro-5-(2-chlorophenoxy)-4H--1,2,6-thiadiazin-4-one] | 0 (0-10) | 0 (0-10) | 0 (0-10) | 0 (0-10) | 23% | 26% | 55% | 100% | –
15 | Nc1ccc(Oc2nsnc(Cl)c2=O)cc1 [Compound 27, 5-(4-aminophenoxy)-3-chloro-4H--1,2,6-thiadiazine-4-one hydrochloride] | – | – | – | – | – | – | – | – | Spore Germination Rating ([1]; 1.0 ppm, hydrochloride): 0 (0-10); Spore Germination Rating ([1]; 2.5 ppm, hydrochloride): 0 (0-10); Spore Germination Rating ([1]; 10 ppm, hydrochloride): 0 (0-10); Spore Germination Rating ([1]; 40 ppm, hydrochloride): 0 (0-10); Percent Fungus Growth Inhibition ([2]; 5 ppm, hydrochloride): 24%; Percent Fungus Growth Inhibition ([2]; 10 ppm, hydrochloride): 24%; Percent Fungus Growth Inhibition ([2]; 20 ppm, hydrochloride): 0%; Percent Fungus Growth Inhibition ([2]; 40 ppm, hydrochloride): 81%
16 | O=c1c(Cl)nsnc1Oc1ccccc1 [Compound 2, 3-chloro-5-phenoxy-4H--1,2,6-thiadiazin-4-one] | 4 (80-100) | 2 (40-60) | 0 (0-10) | 0 (0-10) | 22% | 26% | 56% | 100% | –
17 | Cc1cc(Cl)c(Oc2nsnc(Cl)c2=O)cc1C [Compound 58, 3-chloro-5-[(2-chloro-4,5-dimethyl)phenoxy]-4H--1,2,6-thiadiazin-4-one] | 2 (40-60) | 1 (10-40) | 0 (0-10) | 0 (0-10) | 43% | 54% | 29% | 50% | –
18 | CC(=O)Nc1cccc(Oc2nsnc(Cl)c2=O)c1 [Compound 42, 3-[(3-N--acetylamino)-phenoxy]-5-chloro-4H--1,2,6-thiadiazin-4-one] | 4 (80-100) | 4 (80-100) | 4 (80-100) | 1 (10-40) | 7% | 11% | 32% | 68% | –
19 | O=c1c(Cl)nsnc1Oc1ccccc1Br [Compound 34, 3-chloro-5-(2-bromophenoxy)-4H-1,2,6,-thiadiazin-4-one] | 0 (0-10) | 0 (0-10) | 0 (0-10) | 0 (0-10) | 38% | 65% | 100% | 100% | –
20 | C[S+]([O-])c1ccc(Oc2nsnc(Cl)c2=O)cc1 (stereo not drawn) [Compound 40, 3-chloro-5-[(4-methylsulfinyl)phenoxy]-4H-1,2,6,-thiadiazin-4-one] | – | – | – | – | 33% | 47% | 42% | 89% | –
21 | O=c1c(Cl)nsnc1Oc1cccc(Cl)c1Cl [Compound 19, 3-chloro-5-(2,3-dichlorophenoxy)-4H--1,2,6-thiadiazin-4-one] | 1 (10-40) | 0 (0-10) | 0 (0-10) | 0 (0-10) | 39% | 48% | 68% | 87% | –
22 | CS(=O)(=O)c1ccc(Oc2nsnc(Cl)c2=O)cc1 [Compound 41, 3-chloro-5-[(4-methylsulfonyl)phenoxy]-4H--1,2,6-thiadiazin-4-one] | – | – | – | – | 22% | 56% | 59% | 93% | –
23 | Cc1ccc(Cl)c(Oc2nsnc(Cl)c2=O)c1 [Compound 56, 3-chloro-5-[(2-chloro-5-methyl)phenoxy]-4H--1,2,6-thiadiazin-4-one] | – | – | – | – | 38% | 67% | 100% | 100% | –
24 | N#CCc1ccc(Oc2nsnc(Cl)c2=O)cc1 [Compound 46, 3-chloro-5-[(4-cyanomethyl)-phenoxy]4H--1,2,6-thiadiazin-4-one] | – | – | – | – | 38% | 77% | 100% | 100% | –
25 | O=C(Nc1ccccc1)Oc1ccc(Oc2nsnc(Cl)c2=O)cc1 [Compound 37, 3-chloro-5-[4-(phenylaminocarbonyloxy)phenoxy]-4H-1,2,6,-thiadiazin-4-one] | – | – | – | – | 44% | 44% | 61% | 61% | –
26 | COc1ccc(Cl)c(Oc2nsnc(Cl)c2=O)c1 [Compound 51, 3-chloro-5-[(2-chloro-5-methoxy)phenoxy]-4H--1,2,6-thiadiazin-4-one] | – | – | – | – | 46% | 77% | 92% | 100% | –
27 | O=c1c(Cl)nsnc1Oc1ccc(O)cc1 [Compound 35, 3-chloro-5-(4-hydroxyphenoxy)-4H-1,2,6-thiadiazin-4-one] | – | – | – | – | 23% | 38% | 100% | 100% | –
